Read-outs that look alike come from different tables or passages of the source.

The text below walks through data of patent publication US6800612B2, “S-nitrosothiols as agents for the treatment of circulatory dysfunctions” (Lacer, S.A., priority 2000, dated 2004).

One experiment relates to human washed platelets. Briefly: Tests in vitro of the increase of the intra-platelet levels of GMPc. Type of experiment: cell-based. Particulars: for GMPc intra-platelet level: human washed platelets. The text has this: Tests In Vitro of the Increase of the Intra-platelet Levels of GMPc. […] The method used in the test is substantially the same as described in the references cited in example 8. […] The obtained results are compared to those from the GSNO (reference product) and with the basal values.

The subject of another experiment is platelets. Briefly: Tests in vitro of the inhibition of the aggregation of the platelets (collagen 1 μg/mL). Type of experiment: cell-based, human. Particulars: for IC50: aggregation obtained with sub-maximal collagen concentration (1 μg/mL), read-out: IC50 (average ± SD), inhibition of the aggregation of the platelets; for inhibiting activity on platelets aggregation compared to the reference compound (GSNO): in words. From the text: Tests In Vitro of the Inhibition of the Aggregation of the Platelets. The method used in the assays is substantially the same as described in following references: Loscalzo J, et al. En: Methods in nitric oxide research (Feelisch M, Stamler JS, eds.) John Wiley & Sons, Chichester, England, pp 583-591. Radomski MW, et al. Br J Pharmacol 1987;92:181-187. […], et al. Br J Pharmacol 1994;112:1071-1076. […] The obtained results are compared to those from the S-nitrosoglutathione (GSNO), which is used as reference product.

Experiment [1] deals with human washed platelet preparations. The experiment is described as follows: Test in vitro of the blockage of platelet aggregation inhibition by ODQ. The format is cell-based. Particulars: for inhibition at 0.1 µM / inhibition at 0.3 µM / inhibition at 1 µM: Homo sapiens, Platelet; for inhibition at 1 µM: 1 μM compound; for blocking of the inhibiting effect by ODQ: IC50 dose of the compounds. Here is the method: Test In Vitro of the Blockage of Platelet Aggregation Inhibition. The method used in the test is substantially the same as described in the references cited in example 8, completed with the reference: Moro MA, et al. Pr Nat Acad Sc USA. 1996 ;93:1480-5. The ODQ is tested in vitro to block the inhibition of platelet aggregation reached by the obtained products in human washed platelet preparations. […] The obtained results are compared to those from the GSNO (reference product) and with the values in absence of ODQ.

The test system of a further experiment is arterial ring. The experiment is described as follows: Tests for in vitro vasodilatation (arterial rings contracted with 1 μM Norepinephrine). Type of experiment: cell-based. Particulars: for EC50: vasodilatation of 50% of arterial ring previously contracted with 1 μM Norepinephrine, 6 to 9 rings, read-out: CE50 (average ± SD), vasodilatation. Here is the method:
Tests for In Vitro Vasodilatation. The method used in the assays is substantially the same as described in the following references: Furchgot, R. F. “Methods in nitric oxide research”. Feelisch & Stamler eds. John Wiley &Sons, Chichester, England, pp 567-581. Trongvanichnam, K, et al. Jpn J. […]., et al. Eur. J. Pharmacol. 1994; 258:47-55. The compounds are tested at 5 different concentrations, at a concentration range from 0,001 y 10 mM, using from 6 to 9 arterial rings for each compound. The obtained results are compared to those from the S-nitrosoglutathione (GSNO), which is used as reference product.

For `N[C@@H](CCC(=O)N[C@@H](CSN=O)C(=O)NCC(=O)O)C(=O)O` [GSNO, S-nitrosoglutathione, reference compound], the GMPc intra-platelet level came to 1 ± 0.5 pmol/10^9 platelets in the experiment on human washed platelets (0.1 μM compound), 6.6 ± 0.6 pmol/10^9 platelets with human washed platelets (0.3 μM compound), 24 ± 0.5 pmol/10^9 platelets in the experiment on human washed platelets (1 μM compound) and 27.6 ± 6.0 pmol/10^9 platelets in the experiment with human washed platelets (3 μM compound). The IC50 (in general, the point on the concentration scale where inhibition reaches its midpoint) with platelets (Homo sapiens, Platelet) came out at 0.48 ± 0.19 µM. In addition, the inhibition (as a rule, the percentage by which the read-out fell short of the control) at 0.1 µM amounted to 0% in experiment [1] (0.1 μM compound, ODQ 1 μM, read-out: % inhibition with ODQ) and 34.2 ± 25% in experiment [1] (0.1 μM compound, inhibition of the maximum aggregation, read-out: % inhibition without ODQ). Also, the inhibition at 0.3 µM was 3.3 ± 3% in experiment [1] (0.3 μM compound, ODQ 1 μM, read-out: % inhibition with ODQ) and 79.3 ± 17% in experiment [1] (0.3 μM compound, inhibition of the maximum aggregation, read-out: % inhibition without ODQ). The inhibition at 1 µM in experiment [1] (ODQ 1 μM, read-out: % inhibition with ODQ) turned out to be 32.6 ± 0.9%; in experiment [1] (inhibition of the maximum aggregation, read-out: % inhibition without ODQ) it was 92.65 ± 0.9%. For the same compound, the “blocking of the inhibiting effect by ODQ” value in experiment [1] (ODQ 1 μM, in words) is “capable of blocking the inhibiting effect”. In addition, in the experiment on arterial ring, the EC50 was determined as 1.56 ± 0.55 µM.
For `N[C@@H](CCC(=O)NC(C(=O)NCC(=O)O)C(Cc1ccccc1)(Cc1ccccc1)SN=O)C(=O)O` (stereo partly drawn) [Product obtained in example 6, N[N-γ-L-glutamyl-2-amino-3-benzyl-3-(S-nitrosomercapto)-4-phenylbutanoyl] glycine], in the experiment with platelets, the half-inhibitory concentration (IC50) stood at 0.35 ± 0.11 µM.
On to “N[N-γ-L-glutamyl-2-amino-2-(4-(4—S—nitrosomercapto)tetrahydropyran)) acetyl]glycine [Product obtained in example 4]”, for which the IC50 in the experiment with platelets was determined as 0.2 ± 0.12 µM. Also, in the experiment on arterial ring, the EC50 worked out at 1.73 ± 0.27 µM.
On the same counts, the results for `CC(=O)NC(C(=O)O)C(Cc1ccccc1)(Cc1ccccc1)SN=O` (stereo not drawn) [Product obtained in example 3, N-acetyl-2-amino-3-benzyl-3-S-ni-trosomercapto-4-phenyl-butanoic Acid] are 0.24 ± 0.027 µM and 0.63 ± 0.21 µM.
In the case of `CC(=O)NC(C(=O)O)C1(SN=O)CCN(C)CC1` (stereo not drawn) [Product obtained in example 2, N-acetyl-2-amino-2-[4-(4-S-nitro-somercapto-1-methylpiperidin)] Acetic Acid], in the experiment on platelets, the IC50 came to 0.19 ± 0.02 µM. For the same compound, the “vasodilating activity compared to the reference compound (GSNO)” value in the experiment with arterial ring (in words) is “highly superior to that of the reference product”. The EC50 with arterial ring was 0.024 ± 0.003 µM.
Take `CC(=O)NC(C(=O)O)C1(SN=O)CCOCC1` (stereo not drawn) [Product obtained in example 1, N-acetyl-2-amino-2-[4-(4-S-Nitro-somercaptotetrahydropyran) ] Acetic Acid]: in the experiment with platelets, the IC50 is 0.07 ± 0.02 µM and the “inhibiting activity on platelets aggregation compared to the reference compound (GSNO)” value is “highly superior to that of the reference product”. For the same compound, the EC50 in the experiment with arterial ring was found to be 0.375 ± 0.05 µM.
Take “N[N-γ-L-glutamyl-2-amino-2-(4-(4-S-nitrosomercapto-1-methyl-piperidin))acetyl ] glycine [Product obtained in example 5]”: the GMPc intra-platelet level is reported as 1.60 ± 0.5 pmol/10^9 platelets in the experiment with human washed platelets (0.03 μM compound), 1.50 ± 0.4 pmol/10^9 platelets with human washed platelets (0.1 μM compound), 6.50 ± 0.5 pmol/10^9 platelets in the experiment on human washed platelets (0.3 μM compound) and 21.1 ± 0.5 pmol/10^9 platelets in the experiment with human washed platelets (1 μM compound). The “increase of intra-platelet levels of GMPc compared to GSNO” value in the experiment on human washed platelets (in words) was “in a similar manner to that of the GSNO reference”. In addition, the “levels of GMPc at concentrations close to the IC50, compared to GSNO” value in the experiment on human washed platelets (values close to the IC50, in words) was “lower as that of the GSNO”. In the experiment on platelets, the IC50 came to 0.047 ± 0.011 µM. In addition, the “inhibiting activity on platelets aggregation compared to the reference compound (GSNO)” value with platelets is given as “highly superior to that of the reference product”. In addition, the “% inhibition with ODQ” value in experiment [1] (0.003 μM compound, ODQ 1 μM) is reported as 0%; in experiment [1] (0.01 μM compound, ODQ 1 μM), 0%; in experiment [1] (0.03 μM compound, ODQ 1 μM) it was 0%; in experiment [1] (0.1 μM compound, ODQ 1 μM), 0%; in experiment [1] (0.3 μM compound, ODQ 1 μM), 0%. The “% inhibition without ODQ” value in experiment [1] (0.003 μM compound, inhibition of the maximum aggregation) is on record as 0%; in experiment [1] (0.01 μM compound, inhibition of the maximum aggregation), 17%; in experiment [1] (0.03 μM compound, inhibition of the maximum aggregation) it was 83 ± 1.4%; in experiment [1] (0.1 μM compound, inhibition of the maximum aggregation), 96%; in experiment [1] (0.3 μM compound, inhibition of the maximum aggregation), 96%. Besides, the “blocking of the inhibiting effect by ODQ” value in experiment [1] (ODQ 1 μM, in words) is recorded as “capable of blocking the inhibiting effect”. Moreover, the “blocking of the inhibition of aggregation by ODQ compared to the reference product” value in experiment [1] (ODQ 1 μM, at higher doses to that of the IC50, in words) is “better blocked”. Also, in the experiment with arterial ring, the EC50 came out at 1.89 ± 0.82 µM.
